Measurements as given in ChEMBL document CHEMBL5385942, “C3-Symmetric ligands in drug design: An overview of the challenges and opportunities ahead” (Bioorg Med Chem Lett, 2024).
Active and inactive are the calls of the source. The calls are words filed in the database; no cut-off is given here.

Columns and labels:
Quadruplex DNA [1] = experiment: Stabilization of human G4 quadruplex telomeric22 DNA assessed as change in temperature at 1 uM by FRET assay; format: nucleic-acid assay
Quadruplex DNA [2] = experiment: Stabilization of human G4 quadruplex telomeric22 DNA assessed as change in temperature at 2 uM by FRET assay; format: nucleic-acid assay
dsDNA = experiment: Stabilization of human duplex DNA assessed as change in temperature at 1 uM by FRET assay; format: nucleic-acid assay
Human alphaherpesvirus 1 = experiment: Antiviral activity against HSV-1 infected in African green monkey Vero cells by plaque reduction assay; format: functional, organism-based; settings: Human alphaherpesvirus 1, Vero
Quadruplex DNA [3] = experiment: Stabilization of human G4 quadruplex telomeric22 DNA assessed as change in temperature at 5 uM by FRET assay; format: nucleic-acid assay
Quadruplex DNA [4] = experiment: Stabilization of human G4 quadruplex telomeric22 DNA assessed as change in temperature at 10 uM by FRET assay; format: nucleic-acid assay
Bacillus subtilis = experiment: Antimicrobial activity against Bacillus subtilis MTCC 441 assessed as zone of inhibition by […]; format: functional
Micrococcus luteus = experiment: Antimicrobial activity against Micrococcus luteus ATCC 9341 assessed as zone of inhibition by […]; format: functional

Structure (SMILES)	ΔTm (Quadruplex DNA [1])	ΔTm (Quadruplex DNA [2])	ΔTm (dsDNA)	EC50 (Human alphaherpesvirus 1)	other results
c1cc2c(cc1CNc1nc(NCc3ccc4c(c3)OCO4)nc(NCc3ccc4c(c3)OCO4)n1)OCO2	–	–	–	5.4 µM	–
c1ccc2c(c1)c1cc(-c3cc(-c4ccc5c(c4)c4ccccc4n5CCCN4CCOCC4)cc(-c4ccc5c(c4)c4ccccc4n5CCCN4CCOCC4)c3)ccc1n2CCCN1CCOCC1	–	–	–	–	Activity (Quadruplex DNA [1]): inactive; Activity (Quadruplex DNA [3]): inactive; Activity (Quadruplex DNA [4]): inactive
c1ccc2c(c1)c1cc(-c3cc(-c4ccc5c(c4)c4ccccc4n5CCN4CCCC4)cc(-c4ccc5c(c4)c4ccccc4n5CCN4CCCC4)c3)ccc1n2CCN1CCCC1	1.9 °C	–	–	–	ΔTm (Quadruplex DNA [3]): 10 °C; ΔTm (Quadruplex DNA [4]): 13 °C
COc1ccc(CNc2nc(NCc3ccc(OC)cc3OC)nc(NCc3ccc(OC)cc3OC)n2)c(OC)c1	–	–	–	> 100 µM	–
COc1ccc(CNc2nc(NCc3ccc(OC)c(OC)c3OC)nc(NCc3ccc(OC)c(OC)c3OC)n2)c(OC)c1OC	–	–	–	28 µM	–
CC(C)(C)Oc1nc(N)nc(OC(C)(C)C)n1	–	–	–	> 100 µM	–
NC(=S)N1N=C(c2ccc(Oc3nc(Oc4ccc(C5=NN(C(N)=S)C(c6ccc([N+](=O)[O-])cc6)C5)cc4)nc(Oc4ccc(C5=NN(C(N)=S)C(c6ccc([N+](=O)[O-])cc6)C5)cc4)n3)cc2)CC1c1ccc([N+](=O)[O-])cc1 (centres undefined)	–	–	–	–	inhibition zone (IZ) (Bacillus subtilis): 10 mm
COc1ccc(CNc2nc(NCc3ccc(OC)c(OC)c3)nc(NCc3ccc(OC)c(OC)c3)n2)cc1OC	–	–	–	0.98 µM	–
O=C(/C=C/c1cccc([N+](=O)[O-])c1)c1ccc(Oc2nc(Oc3ccc(C(=O)/C=C/c4cccc([N+](=O)[O-])c4)cc3)nc(Oc3ccc(C(=O)/C=C/c4cccc([N+](=O)[O-])c4)cc3)n2)cc1	–	–	–	–	inhibition zone (IZ) (Bacillus subtilis): 7 mm; inhibition zone (IZ) (Micrococcus luteus): 5 mm
CC(C)COc1nc(N)nc(OCC(C)C)n1	–	–	–	> 100 µM	–
c1ccc2c(c1)c1cc(-c3cc(-c4ccc5c(c4)c4ccccc4n5CCN4CCCCC4)cc(-c4ccc5c(c4)c4ccccc4n5CCN4CCCCC4)c3)ccc1n2CCN1CCCCC1	–	–	–	–	Activity (Quadruplex DNA [1]): inactive; ΔTm (Quadruplex DNA [3]): 2.3 °C; ΔTm (Quadruplex DNA [4]): 4.9 °C
FC(F)CNc1nc(NCC(F)F)nc(NCC(F)F)n1	–	–	–	24.4 µM	–
O=C(/C=C/c1ccc(Cl)cc1)c1ccc(Oc2nc(Oc3ccc(C(=O)/C=C/c4ccc(Cl)cc4)cc3)nc(Oc3ccc(C(=O)/C=C/c4ccc(Cl)cc4)cc3)n2)cc1	–	–	–	–	inhibition zone (IZ) (Bacillus subtilis): 7 mm; inhibition zone (IZ) (Micrococcus luteus): 8 mm
Nc1nc(OC(C(F)(F)F)C(F)(F)F)nc(OC(C(F)(F)F)C(F)(F)F)n1	–	–	–	> 100 µM	–
CC(C)Nc1nc(NC(C)C)nc(NC(C)C)n1	–	–	–	27.3 µM	–
CC(C)CNc1nc(NCC(C)C)nc(NCC(C)C)n1	–	–	–	29.8 µM	–
FC(F)(F)c1ccc(CNc2nc(NCc3ccc(C(F)(F)F)cc3)nc(NCc3ccc(C(F)(F)F)cc3)n2)cc1	–	–	–	7.4 µM	–
Clc1ccc(CNc2nc(NCc3ccc(Cl)cc3)nc(NCc3ccc(Cl)cc3)n2)cc1	–	–	–	11 µM	–
c1ccc(CNc2nc(NCc3ccccc3)nc(NCc3ccccc3)n2)cc1	–	–	–	13.2 µM	–

Further lines, with some results ahead:

ΔTm (Quadruplex DNA [1])	ΔTm (Quadruplex DNA [2])	ΔTm (dsDNA)	EC50 (Human alphaherpesvirus 1)	Structure (SMILES)	other results
0 °C	0 °C	0 °C	–	CCCOCCNCCC(=O)Nc1ccc(-c2cn(Cc3cc(Cn4cc(-c5ccc(NC(=O)CCNCCOCCC)cc5)nn4)cc(Cn4cc(-c5ccc(NC(=O)CCNCCOCCC)cc5)nn4)c3)nn2)cc1	–
1 °C	2 °C	0 °C	–	CCNCCCC(=O)Nc1ccc(-c2cn(Cc3cc(Cn4cc(-c5ccc(NC(=O)CCCNCC)cc5)nn4)cc(Cn4cc(-c5ccc(NC(=O)CCCNCC)cc5)nn4)c3)nn2)cc1	–
2 °C	2 °C	0 °C	–	CCCCCCNCC(=O)Nc1ccc(-c2cn(Cc3cc(Cn4cc(-c5ccc(NC(=O)CNCCCCCC)cc5)nn4)cc(Cn4cc(-c5ccc(NC(=O)CNCCCCCC)cc5)nn4)c3)nn2)cc1	–
2.6 °C	–	–	–	c1ccc2c(c1)c1cc(-c3cc(-c4ccc5c(c4)c4ccccc4n5CCCN4CCCC4)cc(-c4ccc5c(c4)c4ccccc4n5CCCN4CCCC4)c3)ccc1n2CCCN1CCCC1	ΔTm (Quadruplex DNA [3]): 14.3 °C; ΔTm (Quadruplex DNA [4]): 17.5 °C
2 °C	7 °C	0 °C	–	CNCCCC(=O)Nc1ccc(-c2cn(Cc3cc(Cn4cc(-c5ccc(NC(=O)CCCNC)cc5)nn4)cc(Cn4cc(-c5ccc(NC(=O)CCCNC)cc5)nn4)c3)nn2)cc1	–
0 °C	0 °C	0 °C	–	CCCOCCNCCCC(=O)Nc1ccc(-c2cn(Cc3cc(Cn4cc(-c5ccc(NC(=O)CCCNCCOCCC)cc5)nn4)cc(Cn4cc(-c5ccc(NC(=O)CCCNCCOCCC)cc5)nn4)c3)nn2)cc1	–
1 °C	1 °C	0 °C	–	CNCC(=O)Nc1ccc(-c2cn(Cc3cc(Cn4cc(-c5ccc(NC(=O)CNC)cc5)nn4)cc(Cn4cc(-c5ccc(NC(=O)CNC)cc5)nn4)c3)nn2)cc1	–
2 °C	5 °C	0 °C	–	CCCCCNCCCC(=O)Nc1ccc(-c2cn(Cc3cc(Cn4cc(-c5ccc(NC(=O)CCCNCCCCC)cc5)nn4)cc(Cn4cc(-c5ccc(NC(=O)CCCNCCCCC)cc5)nn4)c3)nn2)cc1	–
–	–	0 °C	–	CNCCC(=O)Nc1ccc(-c2cn(Cc3cc(Cn4cc(-c5ccc(NC(=O)CCNC)cc5)nn4)cc(Cn4cc(-c5ccc(NC(=O)CCNC)cc5)nn4)c3)nn2)cc1	–
0 °C	0 °C	0 °C	–	CCCOCCNCC(=O)Nc1ccc(-c2cn(Cc3cc(Cn4cc(-c5ccc(NC(=O)CNCCOCCC)cc5)nn4)cc(Cn4cc(-c5ccc(NC(=O)CNCCOCCC)cc5)nn4)c3)nn2)cc1	–
–	–	–	> 100 µM	COc1ccc(CNc2nc(NCc3ccc(OC)cc3)nc(NCc3ccc(OC)cc3)n2)cc1	–
1 °C	7 °C	0 °C	–	CCCCCNCCC(=O)Nc1ccc(-c2cn(Cc3cc(Cn4cc(-c5ccc(NC(=O)CCNCCCCC)cc5)nn4)cc(Cn4cc(-c5ccc(NC(=O)CCNCCCCC)cc5)nn4)c3)nn2)cc1	–
4 °C	11 °C	0 °C	–	CCCCCCNCCC(=O)Nc1ccc(-c2cn(Cc3cc(Cn4cc(-c5ccc(NC(=O)CCNCCCCCC)cc5)nn4)cc(Cn4cc(-c5ccc(NC(=O)CCNCCCCCC)cc5)nn4)c3)nn2)cc1	–
–	–	0 °C	–	CCNCCC(=O)Nc1ccc(-c2cn(Cc3cc(Cn4cc(-c5ccc(NC(=O)CCNCC)cc5)nn4)cc(Cn4cc(-c5ccc(NC(=O)CCNCC)cc5)nn4)c3)nn2)cc1	–
–	–	–	38.7 µM	Cc1ccc(CNc2nc(NCc3ccc(C)cc3)nc(NCc3ccc(C)cc3)n2)cc1	–
6 °C	–	–	–	c1ccc2c(c1)c1cc(-c3cc(-c4ccc5c(c4)c4ccccc4n5CCCN4CCCCC4)cc(-c4ccc5c(c4)c4ccccc4n5CCCN4CCCCC4)c3)ccc1n2CCCN1CCCCC1	ΔTm (Quadruplex DNA [3]): 17 °C; ΔTm (Quadruplex DNA [4]): 19.9 °C
1 °C	1 °C	0 °C	–	CCCCCCNCCCC(=O)Nc1ccc(-c2cn(Cc3cc(Cn4cc(-c5ccc(NC(=O)CCCNCCCCCC)cc5)nn4)cc(Cn4cc(-c5ccc(NC(=O)CCCNCCCCCC)cc5)nn4)c3)nn2)cc1	–
5.1 °C	–	–	–	CCN(CC)CCCn1c2ccccc2c2cc(-c3cc(-c4ccc5c(c4)c4ccccc4n5CCCN(CC)CC)cc(-c4ccc5c(c4)c4ccccc4n5CCCN(CC)CC)c3)ccc21	ΔTm (Quadruplex DNA [3]): 8.4 °C; ΔTm (Quadruplex DNA [4]): 11.5 °C
0 °C	1 °C	0 °C	–	CCNCC(=O)Nc1ccc(-c2cn(Cc3cc(Cn4cc(-c5ccc(NC(=O)CNCC)cc5)nn4)cc(Cn4cc(-c5ccc(NC(=O)CNCC)cc5)nn4)c3)nn2)cc1	–
0 °C	0 °C	0 °C	–	CCCCCNCC(=O)Nc1ccc(-c2cn(Cc3cc(Cn4cc(-c5ccc(NC(=O)CNCCCCC)cc5)nn4)cc(Cn4cc(-c5ccc(NC(=O)CNCCCCC)cc5)nn4)c3)nn2)cc1	–
